This passage reports MIC, Activity and IC50 results from ChEMBL document CHEMBL4837212, “Cytotoxic Compounds from the Stem Bark of Two subsp. of Bersama abyssinica” (J Nat Prod, 2021).

Values after ≈ are worked out from the molar mass of the structure shown. Active and inactive are the calls of the source. No cut-off for these calls is given here.

Experiment [1] deals with Escherichia coli. As to the kind of experiment: Antibacterial activity against Escherichia coli DSM 1116 assessed as growth inhibition by serial dilution assay. It counts as functional.
Experiment [2] concerns Mycolicibacterium smegmatis. As to the kind of experiment: Antibacterial activity against Mycobacterium smegmatis DSM ATCC 700084 assessed as growth inhibition by serial dilution assay. The class given is functional, organism-based.
For another experiment, the system named is Staphylococcus aureus. The experiment is described as follows: Antibacterial activity against Staphylococcus aureus DSM 346 assessed as growth inhibition by serial dilution assay. It counts as functional.
Another experiment has as its system Bacillus subtilis. The experiment is described as follows: Antibacterial activity against Bacillus subtilis DSM 10 assessed as growth inhibition by serial dilution assay. The class given is functional.
In experiment [3] the test system is Escherichia coli. The experiment is described as follows: Antibacterial activity against Escherichia coli ATCC 8739 assessed as inhibition of bacterial growth measured after 18 hrs by Alamar blue assay. The class given is functional. On the technique in general: Resazurin is reduced to fluorescent resorufin, in cell work by metabolically active cells.
Another experiment relates to KB 3-1. The experiment is described as follows: Cytotoxicity in human KB 3-1 cells assessed as reduction in cell viability measured after 5 days by MTT assay. The class given is functional, cell-based. The settings on record: KB 3-1, 120 h. In general terms: Tetrazolium dyes change colour on reduction, which living cells bring about.

Broadly, the MIC is the lowest concentration found to suppress growth. As to `O=C(OC[C@H]1O[C@@H](OC(=O)c2cc(O)c(O)c(O)c2)[C@H](OC(=O)c2cc(O)c(O)c(O)c2)[C@@H](O)[C@@H]1O)c1cc(O)c(O)c(O)c1`, in the experiment on Escherichia coli [1], the MIC amounted to 52.4 µM (≈ 33.4 µg/mL). For the same compound, the outcome in experiment [2] was inactive.

As for `O=c1c2cc(O)c(O)cc2oc2cc(O)c([C@H]3O[C@@H](CO)[C@H](O)[C@@H](O)[C@@H]3O)c(O)c12`, the MIC in the experiment with Staphylococcus aureus came out at 158 µM (≈ 66.7 µg/mL); in the experiment on Bacillus subtilis it was 158 µM (≈ 66.7 µg/mL); in the experiment on Escherichia coli [3], 36.7 µM (≈ 15.5 µg/mL). For the same compound, in experiment [2], the outcome was inactive.

The term IC50 denotes the midpoint of a concentration-inhibition curve. With `CC12O[C@H]3C[C@@H](O1)[C@]1(C)[C@H]4CC[C@]5(C)[C@@H](c6ccc(=O)oc6)[C@@H](O)C[C@]5(O)[C@@H]4CC[C@@]1(C3)O2`, the IC50 in the experiment on KB 3-1 turned out to be 1.6 µM. Besides, the outcome in experiment [2] was inactive.

Turning to `COC1=C2[C@@H]3CC[C@@]45C[C@@H]6C[C@@H](OC(C)(O6)O4)[C@]5(C)[C@H]3CC[C@]2(C)[C@@H](c2ccc(=O)oc2)C1=O`, the MIC in the experiment on Staphylococcus aureus worked out at 142 µM (≈ 66.8 µg/mL). The outcome in experiment [2] was inactive.

For `O=C(OC[C@H]1O[C@@H](OC(=O)c2cc(O)c(O)c(O)c2)[C@H](OC(=O)c2cc(O)c(O)c(O)c2)[C@@H](OC(=O)c2cc(O)c(O)c(O)c2)[C@@H]1O)c1cc(O)c(O)c(O)c1`, the outcome in experiment [2] was inactive.

In the case of `CC12O[C@H]3C[C@@H](O1)[C@]1(C)[C@H]4CC[C@@]5(C)C(=CC(=O)[C@@H]5c5ccc(=O)oc5)[C@@H]4CC[C@@]1(C3)O2`, the IC50 in the experiment with KB 3-1 was determined as 1.4 µM. Further, the MIC in the experiment on Staphylococcus aureus was found to be 152 µM (≈ 66.7 µg/mL). In experiment [2], the outcome was inactive.
